Laboratory results reported in the NIST ThermoML archive (doi:10.1021/acs.jced.8b00403).
± gives the expanded uncertainty stated by the source.

Experiment: wn = mass fraction of the nth substance listed
Settings: 101.33 kPa, Liquid; for viscosity: Concentric cylinders viscometry; for mass density: Vibrating tube method

OCCCO [propan-1,3-diol] + O
Settings	mass density [kg/m3]	viscosity [mPa·s]
253.15 K, w1 = 0.4453	1053.7 ± 8	40.11 ± 12
253.15 K, w1 = 0.501	1058 ± 8	49.09 ± 15
253.15 K, w1 = 0.6123	1068.2 ± 8	85.87 ± 26
253.15 K, w1 = 0.7236	1074.9 ± 8	158.67 ± 48
253.15 K, w1 = 0.8349	1078.5 ± 8	267.81 ± 81
253.15 K, w1 = 0.9277	1079.6 ± 8	418.56 ± 130
253.15 K, w1 = 1	1078.2 ± 8	574.39 ± 170
258.15 K, w1 = 0.4453	1051.8 ± 8	29.02 ± 8.7
258.15 K, w1 = 0.501	1055.9 ± 8	35.24 ± 11
258.15 K, w1 = 0.6123	1065.8 ± 8	63.15 ± 19
258.15 K, w1 = 0.7236	1072.2 ± 8	110.64 ± 33
258.15 K, w1 = 0.8349	1075.5 ± 8	184.18 ± 55
258.15 K, w1 = 0.9277	1076.5 ± 8	293.3 ± 88
258.15 K, w1 = 1	1075.4 ± 8	409.88 ± 120
263.15 K, w1 = 0.334	1035.2 ± 8	12.02 ± 3.6
263.15 K, w1 = 0.4453	1047.7 ± 8	19.91 ± 6
263.15 K, w1 = 0.501	1052.5 ± 8	24.97 ± 7.5
263.15 K, w1 = 0.6123	1062.1 ± 8	44.2 ± 13
263.15 K, w1 = 0.7236	1068.4 ± 8	76.18 ± 23
263.15 K, w1 = 0.8349	1072.2 ± 8	132.29 ± 40
263.15 K, w1 = 0.9277	1073.2 ± 8	206.53 ± 62
263.15 K, w1 = 1	1072.3 ± 8	289.5 ± 87
268.15 K, w1 = 0.2226	1022.1 ± 8	5.908 ± 1.8
268.15 K, w1 = 0.334	1033.9 ± 8	9.252 ± 2.8
268.15 K, w1 = 0.4453	1045.7 ± 8	15.12 ± 4.5
268.15 K, w1 = 0.501	1050.3 ± 8	18.81 ± 5.6
268.15 K, w1 = 0.6123	1059.5 ± 8	32.82 ± 9.8
268.15 K, w1 = 0.7236	1065.6 ± 8	55.72 ± 17
268.15 K, w1 = 0.8349	1069.3 ± 8	95.75 ± 29
268.15 K, w1 = 0.9277	1070.1 ± 8	149.24 ± 45
268.15 K, w1 = 1	1069 ± 8	207.88 ± 62
273.15 K, w1 = 0.1113	1009.7 ± 8	2.894 ± 0.87
273.15 K, w1 = 0.2226	1021.3 ± 8	4.695 ± 1.4
273.15 K, w1 = 0.334	1032.5 ± 8	7.257 ± 2.2
273.15 K, w1 = 0.4453	1043.7 ± 8	11.74 ± 3.5
273.15 K, w1 = 0.501	1048.1 ± 8	14.52 ± 4.4
273.15 K, w1 = 0.6123	1056.9 ± 8	24.88 ± 7.5
273.15 K, w1 = 0.7236	1062.7 ± 8	41.58 ± 12
273.15 K, w1 = 0.8349	1066.3 ± 8	70.71 ± 21
273.15 K, w1 = 0.9277	1067.1 ± 8	109.69 ± 33
273.15 K, w1 = 1	1065.9 ± 8	152.75 ± 46
283.15 K, w1 = 0.1113	1008.8 ± 8	2.055 ± 0.62
283.15 K, w1 = 0.2226	1019.2 ± 8	3.165 ± 0.95
283.15 K, w1 = 0.334	1029.2 ± 8	4.748 ± 1.4
283.15 K, w1 = 0.4453	1039.3 ± 8	7.451 ± 2.2
283.15 K, w1 = 0.501	1043.3 ± 8	9.1 ± 2.7
283.15 K, w1 = 0.6123	1051.4 ± 8	15.1 ± 4.5
283.15 K, w1 = 0.7236	1056.8 ± 8	24.57 ± 7.4
283.15 K, w1 = 0.8349	1060.2 ± 8	40.76 ± 12
283.15 K, w1 = 0.9277	1061 ± 8	62.32 ± 19
283.15 K, w1 = 1	1059.8 ± 8	86.48 ± 26
293.15 K, w1 = 0.1113	1006.7 ± 8	1.529 ± 0.46
293.15 K, w1 = 0.2226	1016.3 ± 8	2.251 ± 0.68
293.15 K, w1 = 0.334	1025.4 ± 8	3.318 ± 1
293.15 K, w1 = 0.4453	1034.5 ± 8	5.035 ± 1.5
293.15 K, w1 = 0.501	1038.3 ± 8	6.074 ± 1.8
293.15 K, w1 = 0.6123	1045.7 ± 8	9.77 ± 2.9
293.15 K, w1 = 0.7236	1050.9 ± 8	15.48 ± 4.6
293.15 K, w1 = 0.8349	1054 ± 8	25 ± 7.5
293.15 K, w1 = 0.9277	1054.7 ± 8	37.6 ± 11
293.15 K, w1 = 1	1053.6 ± 8	52.01 ± 16
303.15 K, w1 = 0.1113	1004.1 ± 8	1.189 ± 0.36
303.15 K, w1 = 0.2226	1012.9 ± 8	1.689 ± 0.51
303.15 K, w1 = 0.334	1021.1 ± 8	2.421 ± 0.73
303.15 K, w1 = 0.4453	1029.5 ± 8	3.585 ± 1.1
303.15 K, w1 = 0.501	1033 ± 8	4.306 ± 1.3
303.15 K, w1 = 0.6123	1039.9 ± 8	6.724 ± 2
303.15 K, w1 = 0.7236	1044.8 ± 8	10.32 ± 3.1
303.15 K, w1 = 0.8349	1047.8 ± 8	16.26 ± 4.9
303.15 K, w1 = 0.9277	1048.5 ± 8	24.03 ± 7.2
303.15 K, w1 = 1	1047.4 ± 8	32.92 ± 9.9
313.15 K, w1 = 0.1113	1000.4 ± 8	0.9825 ± 0.29
313.15 K, w1 = 0.2226	1008.3 ± 8	1.332 ± 0.4
313.15 K, w1 = 0.334	1016.3 ± 8	1.857 ± 0.56
313.15 K, w1 = 0.4453	1023.9 ± 8	2.659 ± 0.8
313.15 K, w1 = 0.501	1027.3 ± 8	3.148 ± 0.94
313.15 K, w1 = 0.6123	1033.8 ± 8	4.725 ± 1.4
313.15 K, w1 = 0.7236	1038.6 ± 8	7.184 ± 2.2
313.15 K, w1 = 0.8349	1041.5 ± 8	11.05 ± 3.3
313.15 K, w1 = 0.9277	1042.2 ± 8	16.04 ± 4.8
313.15 K, w1 = 1	1041.1 ± 8	21.79 ± 6.5
323.15 K, w1 = 0.1113	996.2 ± 8	0.7887 ± 0.24
323.15 K, w1 = 0.2226	1003.5 ± 8	1.076 ± 0.32
323.15 K, w1 = 0.334	1010.8 ± 8	1.465 ± 0.44
323.15 K, w1 = 0.4453	1018.1 ± 8	2.051 ± 0.62
323.15 K, w1 = 0.501	1021.3 ± 8	2.401 ± 0.72
323.15 K, w1 = 0.6123	1027.4 ± 8	3.522 ± 1.1
323.15 K, w1 = 0.7236	1032.1 ± 8	5.219 ± 1.6
323.15 K, w1 = 0.8349	1035 ± 8	7.801 ± 2.3
323.15 K, w1 = 0.9277	1035.8 ± 8	11.15 ± 3.3
323.15 K, w1 = 1	1034.8 ± 8	15 ± 4.5
333.15 K, w1 = 0.1113	991.1 ± 8	0.6769 ± 0.2
333.15 K, w1 = 0.2226	998.3 ± 8	0.8845 ± 0.27
333.15 K, w1 = 0.334	1005.2 ± 8	1.194 ± 0.36
333.15 K, w1 = 0.4453	1011.8 ± 8	1.641 ± 0.49
333.15 K, w1 = 0.501	1014.8 ± 8	1.885 ± 0.57
333.15 K, w1 = 0.6123	1020.9 ± 8	2.698 ± 0.81
333.15 K, w1 = 0.7236	1025.4 ± 8	3.9 ± 1.2
333.15 K, w1 = 0.8349	1028.3 ± 8	5.713 ± 1.7
333.15 K, w1 = 0.9277	1029.3 ± 8	8.023 ± 2.4
333.15 K, w1 = 1	1028.4 ± 8	10.72 ± 3.2
343.15 K, w1 = 0.1113	985.3 ± 8	0.5651 ± 0.17
343.15 K, w1 = 0.2226	992.4 ± 8	0.7245 ± 0.22
343.15 K, w1 = 0.334	999.3 ± 8	0.9821 ± 0.29
343.15 K, w1 = 0.4453	1005.3 ± 8	1.301 ± 0.39
343.15 K, w1 = 0.501	1008.4 ± 8	1.512 ± 0.45
343.15 K, w1 = 0.6123	1014.1 ± 8	2.123 ± 0.64
343.15 K, w1 = 0.7236	1018.5 ± 8	3.01 ± 0.9
343.15 K, w1 = 0.8349	1021.5 ± 8	4.303 ± 1.3
343.15 K, w1 = 0.9277	1022.6 ± 8	5.933 ± 1.8
343.15 K, w1 = 1	1021.9 ± 8	7.855 ± 2.4
353.15 K, w1 = 0.1113	978.6 ± 8	0.4871 ± 0.15
353.15 K, w1 = 0.2226	986.3 ± 8	0.6668 ± 0.2
353.15 K, w1 = 0.334	992.6 ± 8	0.8548 ± 0.26
353.15 K, w1 = 0.4453	998.5 ± 8	1.09 ± 0.33
353.15 K, w1 = 0.501	1001.2 ± 8	1.21 ± 0.36
353.15 K, w1 = 0.6123	1006.8 ± 8	1.731 ± 0.52
353.15 K, w1 = 0.7236	1011.7 ± 8	2.423 ± 0.73
353.15 K, w1 = 0.8349	1014.4 ± 8	3.317 ± 1
353.15 K, w1 = 0.9277	1015.8 ± 8	4.515 ± 1.4
353.15 K, w1 = 1	1015.3 ± 8	5.916 ± 1.8
